Our source for the IC50 values is BindingDB's records for patent US10494376 (CTXT PTY. LTD., 2019).

For the experiment, the target named is Protein arginine N-methyltransferase 5 (Homo sapiens, UniProt O14744). The experiment in a line: Revised Biochemical Assay. The procedure: Compounds of the invention may be tested for in vitro activity in the following assay: A histone H4 derived peptide is used as substrate (amino acid sequence: […]N H2). Full-length PRMT5 enzyme (NCBI Reference sequence NP_006100.2) was co-expressed with His6-MEP50 in insect cells and purified via Nickel immobilized metal affinity and gel filtration chromatography (the enzyme).The 6 μL reactions are run in Greiner brand black 384-well low volume assay plates. All reactions contained assay buffer (phosphate buffered saline, 0.01% (v/v) Tween-20, 0.01% (w/v) albumin from chicken egg white, 1 mM Dithiothreitol, 1 μM peptide substrate, 1 μM S-Adenosyl methionine, and 15 ng/reaction enzyme, with the enzyme being omitted from negative control reactions. Compounds were added in a volume of 100 nL from dilution series prepared in DMSO, positive and negative control reactions receiving the same volume DMSO without compound. The plates were sealed with adhesive seals and incubated for 4 hours at 37 degree Celsius. Reaction progress was measured using the Transcreener EPIGEN methyltransferase assay (BellBrook Labs, Madison, Wis.) as recommended by the manufacturer. To each reaction 2 μL detection mix were added, containing coupling enzymes, fluorescence polarisation tracer, and AMP antibody. […]

Molecules are shown by their SMILES.

Sequence of Protein arginine N-methyltransferase 5 (O14744 whole entry): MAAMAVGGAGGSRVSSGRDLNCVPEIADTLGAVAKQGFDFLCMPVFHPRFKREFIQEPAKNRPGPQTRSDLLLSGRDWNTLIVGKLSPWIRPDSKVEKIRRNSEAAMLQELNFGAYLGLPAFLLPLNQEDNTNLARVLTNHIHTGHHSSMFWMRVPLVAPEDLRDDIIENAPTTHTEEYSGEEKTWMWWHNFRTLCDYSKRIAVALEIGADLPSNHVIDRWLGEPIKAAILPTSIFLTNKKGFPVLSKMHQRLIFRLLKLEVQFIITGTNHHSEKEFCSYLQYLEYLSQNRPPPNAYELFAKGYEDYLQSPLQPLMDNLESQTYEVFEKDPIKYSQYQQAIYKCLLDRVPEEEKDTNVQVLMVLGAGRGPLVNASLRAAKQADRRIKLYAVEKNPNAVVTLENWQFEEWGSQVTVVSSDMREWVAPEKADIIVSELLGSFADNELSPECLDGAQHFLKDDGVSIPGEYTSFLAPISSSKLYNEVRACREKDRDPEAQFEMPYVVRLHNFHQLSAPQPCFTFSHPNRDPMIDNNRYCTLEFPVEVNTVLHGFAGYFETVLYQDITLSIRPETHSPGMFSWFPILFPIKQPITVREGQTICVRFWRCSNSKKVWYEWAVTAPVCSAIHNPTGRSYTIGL

In the case of `COC(=O)N1CCC(N(C)C(=O)c2ccc(C(=O)NC[C@@H](O)[C@@H]3Cc4ccccc4CN3)cc2)CC1` [US10494376, Example 20], the midpoint of inhibition, the IC50, lay at 11.7 µM.
